Experimental data from US20260041695A1, “COMBINATION THERAPIES FOR TREATMENT OF BREAST CANCER” (Genentech, Inc., priority 2019, published 2026).
Read-outs that look alike come from different tables or passages of the source.

How the values were obtained:
[1] = system: MCF-7 (PIK3CA mutant E545K, ER+) breast carcinoma xenograft; assay: MCF-7 xenograft efficacy; settings: for % TGI: G 25 mg/kg oral QD 21 days, P 50 mg/kg oral QD 21 days, F 200 mg/kg s.c. weekly 3 weeks, groups of 12 animals; for CR / PR: number of animals, groups of 12, doses as for % TGI
Method: Implant 0.36 mg estradiol pellets, s.c. between the scapulae, 1-3 days prior to cell implantation.
Set up CR female NCr nu/nu mice with 1×10^7 MCF7 tumor cells in 0% Matrigel sc in mammary fat pad.
Perform a pair match when tumors reach an average size of 180-220 mm^3, and begin treatment.
Caliper Measurement: biwk to end
Endpoint TGD. Animals are monitored individually. The endpoint of the experiment is a tumor volume of 2000 mm^3 or 45 days, whichever comes first. Responders can be followed longer. When the endpoint is reached, the animals are euthanized per SOP.

[2] = system: locally advanced or metastatic PIK3CA-mutant solid tumors; assay: Phase I single-agent GDC-0077: clinical activity (RECIST v1.1); assay type: in vivo, human
Method: Tumor assessments were performed by RECIST v1.1 at screening and every 8 weeks to assess preliminary anti-tumor activity.

[3] = system: tumor cells bearing mutant PI3K; settings: cited from earlier work
PI3K pathway [4] = assay: Phase Ib GDC-0077 + letrozole with or without palbociclib: pharmacodynamics; assay type: in vivo, human
Method: Pharmacodynamic activity was assessed pre- and on-study (after 2 weeks of daily GDC-0077 treatment), in tumor biopsies via immunohistochemistry (IHC), and in ctDNA samples (by FoundationACT).

[5] = Phase I/Ib inavolisib + palbociclib + fulvestrant: pharmacokinetics; set-up: species or system human; settings: in vivo
[6] = target: Class I PI3K alpha isoform (Homo sapiens, UniProt P42336); settings: versus PI3K alpha; cited from earlier work
Sequence of Class I PI3K alpha isoform (P42336 whole entry, canonical isoform): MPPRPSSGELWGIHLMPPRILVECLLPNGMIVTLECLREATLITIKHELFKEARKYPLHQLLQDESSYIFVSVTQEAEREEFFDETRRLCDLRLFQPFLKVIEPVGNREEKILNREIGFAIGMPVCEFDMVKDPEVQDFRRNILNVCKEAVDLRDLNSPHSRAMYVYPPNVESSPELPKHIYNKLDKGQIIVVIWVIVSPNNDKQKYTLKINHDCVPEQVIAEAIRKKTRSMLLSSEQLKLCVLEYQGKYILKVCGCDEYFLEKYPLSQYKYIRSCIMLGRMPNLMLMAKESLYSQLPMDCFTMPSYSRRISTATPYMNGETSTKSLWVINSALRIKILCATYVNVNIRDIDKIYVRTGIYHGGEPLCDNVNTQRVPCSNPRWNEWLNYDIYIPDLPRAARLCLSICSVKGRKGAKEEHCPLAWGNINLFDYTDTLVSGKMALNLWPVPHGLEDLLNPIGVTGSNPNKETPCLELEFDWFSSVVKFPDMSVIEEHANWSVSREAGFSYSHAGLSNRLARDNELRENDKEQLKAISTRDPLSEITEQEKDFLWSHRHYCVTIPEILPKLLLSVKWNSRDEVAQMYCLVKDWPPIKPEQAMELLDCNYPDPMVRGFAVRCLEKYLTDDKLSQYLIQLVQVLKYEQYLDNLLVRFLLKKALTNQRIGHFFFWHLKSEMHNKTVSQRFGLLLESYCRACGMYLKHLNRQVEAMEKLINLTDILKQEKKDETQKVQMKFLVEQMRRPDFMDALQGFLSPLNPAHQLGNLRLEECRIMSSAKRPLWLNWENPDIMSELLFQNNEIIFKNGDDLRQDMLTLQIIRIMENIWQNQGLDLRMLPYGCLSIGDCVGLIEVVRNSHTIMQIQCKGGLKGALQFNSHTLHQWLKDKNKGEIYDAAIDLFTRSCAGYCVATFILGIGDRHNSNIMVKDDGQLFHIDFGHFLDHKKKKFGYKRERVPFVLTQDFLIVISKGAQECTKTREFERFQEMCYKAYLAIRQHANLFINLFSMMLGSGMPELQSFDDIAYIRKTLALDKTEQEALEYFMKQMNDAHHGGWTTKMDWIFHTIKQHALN
Sequence of Class I PI3K alpha isoform (P27986 whole entry partner, canonical isoform): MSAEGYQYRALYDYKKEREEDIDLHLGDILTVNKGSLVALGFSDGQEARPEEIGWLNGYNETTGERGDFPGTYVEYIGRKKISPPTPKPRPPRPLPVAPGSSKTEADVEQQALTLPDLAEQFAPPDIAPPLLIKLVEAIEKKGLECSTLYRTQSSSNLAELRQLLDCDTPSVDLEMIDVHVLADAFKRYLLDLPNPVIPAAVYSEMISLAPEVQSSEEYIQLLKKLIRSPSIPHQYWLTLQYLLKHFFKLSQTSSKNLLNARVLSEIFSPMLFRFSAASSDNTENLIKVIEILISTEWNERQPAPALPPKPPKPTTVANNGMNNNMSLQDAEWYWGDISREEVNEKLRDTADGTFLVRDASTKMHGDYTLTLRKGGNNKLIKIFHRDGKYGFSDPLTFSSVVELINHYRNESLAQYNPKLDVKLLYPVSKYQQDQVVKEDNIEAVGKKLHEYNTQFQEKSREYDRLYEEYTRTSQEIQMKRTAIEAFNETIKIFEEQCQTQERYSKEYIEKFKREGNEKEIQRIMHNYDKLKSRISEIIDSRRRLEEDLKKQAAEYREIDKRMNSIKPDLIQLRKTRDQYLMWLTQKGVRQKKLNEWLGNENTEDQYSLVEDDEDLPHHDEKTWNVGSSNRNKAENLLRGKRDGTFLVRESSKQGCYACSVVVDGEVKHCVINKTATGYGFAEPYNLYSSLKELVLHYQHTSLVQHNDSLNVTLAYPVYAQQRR

[7] = Phase I single-agent GDC-0077: pharmacokinetics; assay type: in vivo, human
Method: To evaluate single dose pharmacokinetics (PK), frequent blood sampling was performed up to 48 hours after the initial dose at Cycle 1 Day 1. Once daily dosing was initiated from Cycle 1 Day 8 and blood sampling to evaluate PK at steady state was conducted at Cycle 1 Day 15.

[8] = Phase I/Ib GDC-0077 + fulvestrant: pharmacokinetics and food effect; assay type: in vivo, human
Method: Safety (NCI-CTCAE v4), PK, and preliminary antitumor activity (clinical benefit rate [CBR]: RECIST v1.1 stable disease for ≥24 weeks, partial response [PR], or complete response) were assessed. The effect of a standard high-fat meal on the PK of G was evaluated after a single dose and at steady state. Relevant signaling and pharmacodynamic (PD) biomarkers were assessed using circulating tumor (ct) DNA samples.

[9] = Phase Ib GDC-0077 + letrozole with or without palbociclib: pharmacokinetics; assay type: in vivo, human
PI3K pathway [10] = assay: Phase I single-agent GDC-0077: pharmacodynamics; assay type: in vivo, human
Method: Pharmacodynamic activity was assessed pre- and on-study (after 2 weeks of daily GDC-0077 treatment) with FDG-PET scans, in tumor biopsies via immunohistochemistry (IHC), and in ctDNA samples (by FoundationACT).

[11] = cited from earlier work
[12] = 19 patients with measurable disease
[13] = in combination with fulvestrant

## C[C@H](Nc1ccc2c(c1)OCCn1cc(N3C(=O)OC[C@H]3C(F)F)nc1-2)C(N)=O [GDC-0077, (S)-2-((2-((S)-4-(difluoromethyl)-2-oxooxazolidin-3-yl)-5,6-dihydrobenzo[f]imidazo[1,2-d][1,4]oxazepin-9-yl)amino)propanamide]
[1]
  % TGI: 35%
  CR: 0
  PR: 0
[2]; [12]
  best overall response rate: 26%
  confirmed overall response rate: 21%
[2]; 20 patients
  clinical benefit rate: 45%
[2]; of 20 patients
  clinical benefit: 9 patients
[2]; overall, 20 patients
  best overall response rate: 25%
  confirmed PR: 4 patients
  confirmed overall response rate: 20%
  partial response (PR): 5 patients
[2]; patients with tumors harboring PIK3CA mutations (conclusions)
  overall response rate: 210%
[3]
  potency in tumor cells bearing mutant PI3K over wild type (WT) PI3K cells: increased potency
9 patients treated ≥5 months
  colitis: No colitis
QD, single agent
  MTD: 9 mg
At 12 mg (1 Grade 4 hyperglycemia, 1 Grade 3 fatigue)
  Dose-limiting toxicities: 2 patients
treatment-related diarrhea events all Grade 1-2
  treatment related high-grade gastrointestinal toxicities: No treatment related high-grade gastrointestinal toxicities
PI3K pathway [4]; GDC-0077 with letrozole with or without palbociclib
  PI3K pathway effectors (pAKT, pS6) in paired tumor biopsies: Robust PD downregulation
PI3K pathway [4]; between Cycle 1 Day 1 and Cycle 1 Day 15, majority of available samples
  PIK3CA mutant allele frequency by ctDNA: decreased
[5]
  drug-drug interactions with concomitant therapies (palbociclib and fulvestrant [and metformin]): no drug-drug interactions
  pharmacokinetics of inavolisib in combination with palbociclib+fulvestrant versus single-agent inavolisib: similar
[6]
  fold less potent biochemical inhibition for other Class I PI3K beta, delta, and gamma isoforms: > 300 fold
[7]; after a single dose and at steady state at MTD (9 mg)
  PK variability (% CV) for Cmax and AUC0-24: ~20%
[7]; human, plasma, oral, following a single dose, read-out: Mean half-life (t1/2) (converted)
  half-life: 18.1 h
[7]; single and multiple doses
  Plasma exposure versus dose: increased proportionally
[8]; in vivo
  PK of GDC-0077 in combination with fulvestrant versus single-agent PK: similar
[8]; standard high-fat meal, single dose and steady state
  GDC-0077 exposures (Cmax and AUC0-24) in fasted or fed states: Comparable
[9]; Preliminary results
  plasma exposure of GDC-0077, single agent versus combination arms: similar
[9]; in vivo
  drug-drug interaction with concomitant medications (palbociclib and letrozole): no drug-drug interaction
PI3K pathway [10]; baseline and after 2 weeks of daily GDC-0077
  FDG-PET scans: metabolic responses at all dose levels evaluated
PI3K pathway [10]; in vivo
  PI3K pathway activity in paired tumor biopsies by IHC for phosphoproteins: Decreased
PI3K pathway [10]; over time, majority of specimens
  ctDNA PIK3CA mutant allele frequency: Decreased

## C[C@]12CC[C@@H]3c4ccc(O)cc4C[C@@H](CCCCCCCCC[S+]([O-])CCCC(F)(F)C(F)(F)F)[C@H]3[C@@H]1CC[C@@H]2O (stereo partly drawn) [fulvestrant, (7α,17β)-7-{9-[(4,4,5,5,5-pentafluoropentyl)sulfinyl]nonyl}estra-1,3,5(10)-triene-3,17-diol]
[1]
  % TGI: 52%
  CR: 0
  PR: 0

## N#Cc1ccc(C(c2ccc(C#N)cc2)n2cncn2)cc1 [letrozole, 4,4′-((1H-1,2,4-triazol-1-yl)methylene)dibenzonitrile, reference compound]
[9]; in vivo
  pharmacokinetics in combination with GDC-0077 versus single-agent PK reported in literature: comparable

## CC(=O)c1c(C)c2cnc(Nc3ccc(N4CCNCC4)cn3)nc2n(C2CCCC2)c1=O [palbociclib, 6-acetyl-8-cyclopentyl-5-methyl-2-(5-(piperazin-1-yl)pyridin-2-ylamino)pyrido[2,3-d]pyrimidin-7(8H)-one]
[1]
  % TGI: 45%
  CR: 0
  PR: 0
[11]; [13]
  cycle delays: 36%
  dose holds: 54%
  patients required ≥1 dose reduction of palbociclib: 34%
[11]; in combination with letrozole
  cycle delays: 68%
  dose holds: 70%
  patients required ≥1 dose reduction of palbociclib: 36%
[9]; in vivo
  pharmacokinetics in combination with GDC-0077 versus single-agent PK reported in literature: comparable
